Values of other authors as cited in patent US20110038852A1, “ANTIVIRALS THAT TARGET TRANSPORTERS, CARRIERS, AND ION CHANNELS” (3-V BIOSCIENCES, INC., priority 2009, published 2011).

How the values were obtained:
rhinoviral infections = settings: volunteers, clinical trials

Compound	mucus secretions and illness-associated symptoms (rhinoviral infections)	side effects (rhinovirus infections; human, in vivo)	effect against rhinovirus infections (rhinovirus infections; used intranasally)
Cc1cc(CCCOc2c(C)cc(-c3noc(C(F)(F)F)n3)cc2C)on1 [Pleconaril]	significant decrease		
Interferon-alpha		nasal bleeding	effective
